Source: the supplement of paper PMC3974653
Where a name gives a salt, the structure may show the parent alone.

What follows are compounds tested on MTT (mouse pheochromocytoma) (assay: IC50 of cell viability (ATP content)). Settings: (24 or 48 h).
Summary of the method: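 Library compounds in DMSO (23 nl by pintool, 8 concentrations, final 0.5 nM to 46 µM) were applied for 24 or 48 hrs to MTT mouse pheochromocytoma cells that had been cultured overnight at 37°C, 5% CO2 in white 1536-well plates. Cell viability was measured by CellTiter-Glo ATP luminescence, read after 15 minutes, with positive-control wells set at 100% and DMSO wells at 0%. A four-parameter logistic fit of the normalised signals yielded the IC50.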

| SMILES | IC50 of cell viability |
| --- | --- |
| CN1C[C@@H]2c3ccccc3Oc3ccc(Cl)cc3[C@H]2C1 [Asenapine] | > 46 µM |
| COC(=O)[C@H](Cc1ccccc1)NC(=O)[C@@H](N)CC(=O)O [Aspartame] | > 46 µM |
| O=C(Nc1ccc([S+](=O)([O-])N2CCOCC2)cc1)c1cc(Cl)ccc1N[S+](=O)([O-])c1ccc(Cl)s1 [Ataciguat] | > 46 µM |
| COC(=O)N[C@H](C(=O)N[C@@H](Cc1ccccc1)[C@@H](O)CN(Cc1ccc(-c2ccccn2)cc1)NC(=O)[C@@H](NC(=O)OC)C(C)(C)C)C(C)(C)C [Atazanavir] | > 46 µM |
| CCC1(c2cnc[nH]2)Cc2ccccc2C1 [Atipamezole Hydrochloride] | > 46 µM |
| CCC1(c2cnc[nH]2)Cc2ccccc2C1 [Atipamezole] | > 46 µM |
| CCOc1ccc(C[C@H]2NC(=O)CCSSC[C@@H](C(=O)N3CCC[C@H]3C(=O)N[C@@H](CCCN)C(=O)NCC(N)=O)NC(=O)[C@H](CC(N)=O)NC(=O)[C@H]([C@@H](C)O)NC(=O)[C@H]([C@@H](C)CC)NC2=O)cc1 [Atosiban] | > 46 µM |
| O\C1=C(/C2CCC(CC2)C3=CC=C(Cl)C=C3)C(=O)C4=C(C=CC=C4)C1=O (stereo not given) [Atovaquone] | > 46 µM |
| COc1ccc(C[C@@H]2c3cc(OC)c(OC)cc3CC[N@@+]2(C)CCC(=O)OCCCCCOC(=O)CC[N@+]2(C)CCc3cc(OC)c(OC)cc3[C@H]2Cc2ccc(OC)c(OC)c2)cc1OC.O=S(=O)([O-])c1ccccc1.O=S(=O)([O-])c1ccccc1 [Atracurium besylate] | > 46 µM |
| C[N@+]1([O-])[C@H]2CC[C@H]1C[C@H](OC(=O)[C@@H](CO)c1ccccc1)C2 [Atropine oxide] | > 46 µM |
| C[N@+]1([O-])[C@@H]2CC[C@@H]1C[C@@H](OC(=O)[C@@H](CO)c1ccccc1)C2 [Atropine-N-oxide hydrochloride] | > 46 µM |
| CN1[C@@H]2CC[C@H]1CC(OC(=O)C(CO)c1ccccc1)C2 (stereo not given in full) [Atropine] | > 46 µM |
| CNC(=O)c1ccccc1Sc1ccc2c(/C=C/c3ccccn3)n[nH]c2c1 [Axitinib] | > 46 µM |
| O=C(CCCN1CCN2CCCC2C1)c1ccc(F)cc1 (stereo not given) [Azabuperona] | > 46 µM |
| O=C(CCN1CCN2CCCC2C1)N1c2ccccc2Sc2ccc(Cl)cc21 (stereo not given) [Azaclorzina] | > 46 µM |
| Clc1ccc(C2(Cn3cncn3)OCCO2)c(Cl)c1 [Azaconazole] | > 46 µM |
| OC(c1ccccc1)(c1ccccc1)C1CCNCC1 [Azacyclonol] | > 46 µM |
| O=C(CCCN1CCN(c2ccccn2)CC1)c1ccc(F)cc1 [Azaperone] | > 46 µM |
| CCC[C@@H]1C(=O)N2N(C1=O)\C(=N/C3=C2C=C(C)C=C3)N(C)C [Azapropazone] | > 46 µM |
| CC(=O)OC[C@H]1O[C@H]([C@H](OC(C)=O)[C@@H]1OC(C)=O)N2\N=C/C(=O)NC2=O [Azaribine] | > 46 µM |
| CN1CC\C(CC1)=C2/C3=CC=CC=C3CCC4=CC=CN=C24 [Azatadine] | > 46 µM |
| Cn1cnc([N+](=O)[O-])c1Sc1ncnc2nc[nH]c12 [Azathioprine] | > 46 µM |
| CC[C@H]1OC(=O)[C@H](C)[C@@H](O[C@H]2C[C@@](C)(OC)[C@@H](O)[C@H](C)O2)[C@H](C)[C@@H](O[C@@H]2O[C@H](C)C[C@H](N(C)C)[C@H]2O)[C@](C)(O)C[C@@H](C)CN(C)[C@H](C)[C@@H](O)[C@]1(C)O [Azithromycin] | > 46 µM |
| [Na+].CC1(C)S[C@H]2[C@H](NC(=O)[C@@H](NC(=O)N3CCNC3=O)C4=CC=CC=C4)C(=O)[N@]2[C@H]1C([O-])=O [Azlocillin sodium salt] | > 46 µM |

| SMILES | IC50 of cell viability |
| --- | --- |
| [O-]/[N+](=N/c1ccccc1)c1ccccc1 [Azoxybenzene] | > 46 µM |
| CO/C=C(/C(=O)OC)c1ccccc1Oc1cc(Oc2ccccc2C#N)ncn1 [Azoxystrobin] | > 46 µM |
| C[C@H]1[C@H](NC(=O)/C(=N/OC(C)(C)C(=O)O)c2csc(N)n2)C(=O)N1[S+](=O)([O-])O [Aztreonam] | > 46 µM |
| C=CCN1CCc2nc(N)sc2CC1 [B-HT 920] | > 46 µM |
| CCN1CCc2nc(N)oc2CC1.Cl.Cl [B-HT 933 dihydrochloride] | > 46 µM |
| NCC(CC(=O)O)c1ccc(Cl)cc1 (stereo not given) [BACLOFEN] | > 46 µM |
| CNC1CCCN(c2c(F)cc3c(=O)c(C(=O)O)cn(C4CC4)c3c2OC)C1 (stereo not given) [BALOFLOXACIN HYDRATE] | > 46 µM |
| O=C(O)CCNC(=O)c1ccc(/N=N/c2ccc(O)c(C(=O)O)c2)cc1 [BALSALAZIDE DISODIUM] | > 46 µM |
| CCCCCCCCCCCCCCCCCCOCC(O)CO (stereo not given) [BATYL ALCOHOL] | > 46 µM |
| NCC1O[C@@H](O[C@@H]2C(O)[C@H](O[C@H]3OC(CO)C(O)C(N)C3O)[C@@H](N)C[C@H]2N)C(N)C(O)C1O.O=[S+]([O-])(O)O (stereo not given in full) [BEKANAMYCIN SULFATE] | > 46 µM |
| CCN(CC)CCOC(=O)C(O)(c1ccccc1)c1ccccc1 [BENACTYZINUM] | > 46 µM |
| Cn1c(CCCC(=O)O)nc2cc(N(CCCl)CCCl)ccc21 [BENDAMUSTINUM] | > 46 µM |
| O=C([O-])COc1nn(Cc2ccccc2)c2ccccc12 [BENDAZAC] | > 46 µM |
| CC(Cc1cccc(C(F)(F)F)c1)NCCOC(=O)c1ccccc1.Cl (stereo not given) [BENFLUOREX HYDROCHLORIDE] | > 46 µM |
| CC(=O)Nc1ccc(OC(=O)c2ccccc2OC(C)=O)cc1 [BENORILATE] | > 46 µM |
| CCCCCCCCCCCCCC[N+](C)(C)Cc1ccccc1.O.[Cl-] [BENZALKONIUM CHLORIDE] | > 46 µM |
| CN1C2CCC1C(C(=O)O)C(OC(=O)c1ccccc1)C2 (stereo not given) [BENZOYLECGONINE] | > 46 µM |
| O=C(O)CNC(=O)CNC(=O)CNC(=O)CSC(=O)c1ccccc1 [BENZOYLMERCAPTOACETYLGLYCYLGLYCYLGLYCINE (Betiatide)] | > 46 µM |
| CN1C2CCC1CC(OC(c1ccccc1)c1ccccc1)C2.O=[S+]([O-])(O)O (stereo not given) [BENZTROPINE] | > 46 µM |
| O=C(/C=C/c1ccccc1)OCc1ccccc1 [BENZYL CINNAMATE] | > 46 µM |
| O=C(OCc1ccccc1)c1cccnc1 [BENZYL NICOTINATE] | > 46 µM |
| CC(C)COCC(CN(Cc1ccccc1)c1ccccc1)N1CCCC1 (stereo not given) [BEPRIDIL] | > 46 µM |
| CC#CC[C@@H](C)[C@@H](O)/C=C/[C@H]1[C@H]2c3cccc(CCCC(=O)[O-])c3O[C@H]2C[C@@H]1O [BERAPROST SODIUM] | > 46 µM |
| C[N+](C)(C)CC(=O)[O-].Cl [BETAINE HYDROCHLORIDE] | > 46 µM |

| SMILES | IC50 of cell viability |
| --- | --- |
| O=C(O)CCNC(=O)c1ccccc1 [BETAMIPRON] | > 46 µM |
| CCC(=O)OC1(c2ccccc2)CCN(C)CC1C (stereo not given) [BETAPRODINUM] | > 46 µM |
| CC(C)NCC(O)COc1ccc(CCOCC2CC2)cc1 (stereo not given) [BETAXOLOL] | > 46 µM |
| C[N+]1(C)CCCCC1COC(=O)C(O)(c1ccccc1)c1ccccc1 (stereo not given) [BEVONIUM METHYLSULFATE] | > 46 µM |
| C=C(c1ccc(C(=O)O)cc1)c1cc2c(cc1C)C(C)(C)CCC2(C)C [BEXAROTENE] | > 46 µM |
| CN1CCC(Nc2ncc3ncnc(Nc4ccc(F)c(Cl)c4)c3n2)CC1 [BIBX 1382 dihydrochloride] | > 46 µM |
| c1ccc(-c2ccc(C(c3ccccc3)n3ccnc3)cc2)cc1 (stereo not given) [BIFONAZOLE] | > 46 µM |
| O=C(O)Cc1cccc(-c2cc(CCCCCCc3ccc(O[C@H]4O[C@H](CO)[C@@H](O)[C@H](O)[C@@H]4O)c(-c4cccc(CC(=O)O)c4)c3)ccc2O[C@H]2O[C@H](CO)[C@@H](O)[C@H](O)[C@@H]2O)c1 [BIMOSIAMOSE DISODIUM] | > 46 µM |
| CC(C)=CC1C(C(=O)OCc2coc(Cc3ccccc3)c2)C1(C)C (stereo not given) [BIORESMETHRINUM] | > 46 µM |
| CC(C)=CCC[C@](C)(O)C1CC\C(=C/C1)C (stereo not given in full) [BISABOLOL] | > 46 µM |
| [O]=[Bi][O][Bi]=[O] [BISMUTH OXIDE] | > 46 µM |
| CC(C)(C)CC(C)(C)c1cc(Cc2cc(C(C)(C)CC(C)(C)C)cc(-n3nc4ccccc4n3)c2O)c(O)c(-n2nc3ccccc3n2)c1 [BISOCTRIZOLE] | > 46 µM |
| CCN1CCN(c2cc(-c3ccc(F)cc3)c3c(n2)CCCCCC3)CC1 [BLONANSERIN] | > 46 µM |
| O=C1Oc2ccccc2C(=O)C1C(CC(O)c1ccc(-c2ccc(Br)cc2)cc1)c1ccccc1 (stereo not given) [BOLDO] | > 46 µM |
| Cc1cc2c(OCC(CNC(C)(C)C)OC(=O)c3ccccc3)cccc2[nH]1 (stereo not given) [BOPINDOLOL] | > 46 µM |
| CC1(C)C2CC[C@]1(C)[C@@H](O)C2 [BORNEOL] | > 46 µM |
| CC(=O)OC1CC2CCC1(C)C2(C)C (stereo not given) [BORNYL ACETATE] | > 46 µM |
| COc1ccccc1Oc1c(N[S+](=O)([O-])c2ccc(C(C)(C)C)cc2)nc(-c2ncccn2)nc1OCCO [BOSENTAN] | > 46 µM |
| Nc1c(CC(=O)[O-])cccc1C(=O)c1ccc(Br)cc1 [BROMFENAC SODIUM] | > 46 µM |
| CN(Cc1cc(Br)cc(Br)c1N)C1CCCCC1.Cl [BROMHEXINE HYDROCHLORIDE] | > 46 µM |
| CCN(CC)CCNC(=O)c1cc(Br)c(N)cc1OC [BROMOPRIDE] | > 46 µM |
| Nc1nc(O)c(Br)c(-c2ccccc2)n1 [BROPIRIMINE] | > 46 µM |
